Reference: ChEMBL document CHEMBL1156251, “Structure--activity relationships of polymyxin antibiotics” (J Med Chem, 2010)
Values after ≈ are worked out from the molar mass of the structure shown. Values joined by “and” are separate entries in the source; they are usually repeats but may differ in a detail not shown here. Equal values may be shown once. *1 amine or outer side, *2 acyl side, *3 side chain or, on linkers, in order; H or OH if unused. Where a SMILES comes first, the peptide text is derived from it. Bridges are numbered along the chain shown (N, C = ends). [ ]: non-standard residue; d: D form. The star is where a group is joined. X1 = NC(=O)[C@@H](CS[*:2])C(=O)[*:1]; Heptanoyl(6-Me) = CC(C)CCCCC(=O)*; X2 = CC[C@H](C)[C@H](NO*)C(=O)O; Heptanoyl = CCCCCCC(=O)*; Octanoyl = CCCCCCCC(=O)*; Dab = NCC[C@H](N)C(=O)O

Legend:
Lipopolysaccharide (LPS) = experiment: Displacement of dansyl-PMB from LPS by isothermal titration calorimetry
Pseudomonas aeruginosa = experiment: Antimicrobial activity against Pseudomonas aeruginosa; type: functional, organism-based
Escherichia coli = experiment: Antimicrobial activity against Escherichia coli; type: functional
Salmonella enterica = experiment: Antimicrobial activity against Salmonella enterica; type: functional

| IC50 (Lipopolysaccharide (LPS)) | MIC (Pseudomonas aeruginosa) [µM] | MIC (Escherichia coli) | MIC (Salmonella enterica) | Ka (Lipopolysaccharide (LPS)) | SMILES |
| --- | --- | --- | --- | --- | --- |
| 11 nmol/mL | 1 (≈ 1.1 µg/mL) | 2 µM (≈ 2.2 µg/mL) | 16 µM |  | CCCCCCCC(=O)N[C@@H](CCN)C(=O)N[C@H](C(=O)N[C@@H](CCN)C(=O)N[C@H]1CCNC(=O)[C@H]([C@@H](C)O)NC(=O)[C@H](CCN)NC(=O)[C@H](CCN)NC(=O)[C@H](CC(C)C)NC(=O)CNC(=O)[C@H](CCN)NC1=O)[C@@H](C)O (Octanoyl-[Dab]T[Dab][Dab][Dab]GL[Dab][Dab]T; lactam 4-C) |
| 20 nmol/mL | ≥ 512 | 256 µM (≈ 267 µg/mL) | ≥ 512 µM |  | CCCCCCCC(=O)N[C@@H](CCN)C(=O)N[C@H](C(=O)N[C@@H](CCN)C(=O)N[C@H]1CCNC(=O)[C@H]([C@@H](C)O)NC(=O)[C@H](CCN)NC(=O)[C@H](CCN)NC(=O)CNC(=O)CNC(=O)[C@H](CCN)NC1=O)[C@@H](C)O (Octanoyl-[Dab]T[Dab][Dab][Dab]GG[Dab][Dab]T; lactam 4-C) |
| 3 nmol/mL | 0.5 (≈ 0.632 µg/mL) | 8 µM (≈ 10.1 µg/mL) | 32 µM |  | CC(C)C[C@@H]1NC(=O)[C@@H](Cc2ccccc2)NC(=O)[C@H](CCN)NC(=O)[C@@H](NC(=O)[C@H](CCN)NC(=O)[C@@H](NC(=O)[C@H](CCN)NC(=O)[C@@H](CCN)NC(=O)[C@@H](N)CCN)[C@@H](C)O)CCNC(=O)[C@H]([C@@H](C)O)NC(=O)[C@H](CCN)NC(=O)[C@H](CCN)NC1=O [DESFA-[DAB-DAB-DAB1]POLYMYXIN B] |
| 14 nmol/mL | 8 (≈ 7.91 µg/mL) | 16 µM (≈ 15.8 µg/mL) | 16 µM |  | CCCCCCCC(=O)N[C@@H](CCN)C(=O)N[C@H]1CCNC(=O)[C@H]([C@@H](C)O)NC(=O)[C@H](CCN)NC(=O)[C@H](CCN)NC(=O)[C@H](CC(C)C)NC(=O)[C@@H](Cc2ccccc2)NC(=O)[C@H](CCN)NC1=O |
| 3 nmol/mL | 1 (≈ 1.43 µg/mL) | 16 µM (≈ 22.9 µg/mL) | 64 µM |  | CC(C)C[C@@H]1NC(=O)[C@@H](Cc2ccccc2)NC(=O)[C@H](CCN)NC(=O)[C@@H](NC(=O)[C@H](CCN)NC(=O)[C@@H](NC(=O)[C@H](CCCNC(=N)N)NC(=O)[C@@H](CCCNC(=N)N)NC(=O)[C@@H](N)CCCNC(=N)N)[C@@H](C)O)CCNC(=O)[C@H]([C@@H](C)O)NC(=O)[C@H](CCN)NC(=O)[C@H](CCN)NC1=O [DESFA-[ARG-ARG-ARG1]POLYMYXIN B] |
| >= 32 nmol/ml | 16 (≈ 18.5 µg/mL) | 8 µM (≈ 9.23 µg/mL) | 8 µM |  | CC(C)C[C@@H]1NC(=O)[C@@H](Cc2ccccc2)NC(=O)[C@H](CCN)NC(=O)[C@@H](NC(=O)[C@H](CCN)NC(=O)[C@@H](NC(=O)[C@H](Cc2ccccc2)NC(=O)O)[C@@H](C)O)CCNC(=O)[C@H]([C@@H](C)O)NC(=O)[C@H](CCN)NC(=O)[C@H](CCN)NC1=O [DESFA-[PHE1]POLYMYXIN B] |
| 5 nmol/mL | 1 (≈ 1.15 µg/mL) | 1 µM (≈ 1.15 µg/mL) | 1 µM |  | CCCCCCCC(=O)N[C@@H](CCN)C(=O)N[C@H](C(=O)N[C@@H](CCN)C(=O)N[C@H]1CCNC(=O)[C@H]([C@@H](C)O)NC(=O)[C@H](CCN)NC(=O)[C@H](CCN)NC(=O)[C@H](C)NC(=O)[C@@H](Cc2ccccc2)NC(=O)[C@H](CCN)NC1=O)[C@@H](C)O |
| 5 nmol/mL | 1 (≈ 1.16 µg/mL) | 2 µM (≈ 2.32 µg/mL) | 1 µM |  | CCCCCCCC(=O)N[C@@H](CCN)C(=O)N[C@H](C(=O)N[C@@H](CCN)C(=O)N[C@H]1CCNC(=O)[C@H](C)NC(=O)[C@H](CCN)NC(=O)[C@H](CCN)NC(=O)[C@H](CC(C)C)NC(=O)[C@@H](Cc2ccccc2)NC(=O)[C@H](CCN)NC1=O)[C@@H](C)O (Octanoyl-[Dab]T[Dab][Dab][Dab][dF]L[Dab][Dab]A; lactam 4-C) |
| 8 nmol/mL | 1 (≈ 1.19 µg/mL) | 0.5 µM (≈ 0.595 µg/mL) | 0.5 µM |  | CCCCCCCC(=O)N[C@@H](CCN)C(=O)N[C@H](C(=O)N[C@@H](CCN)C(=O)N[C@H]1CCNC(=O)[C@@H]([C@@H](C)O)NC(=O)[C@H](CCN)NC(=O)[C@H](CCN)NC(=O)[C@H](CC(C)C)NC(=O)[C@@H](Cc2ccccc2)NC(=O)[C@H](CCN)NC1=O)[C@@H](C)O [POLYMYXIN B3] |
| 21 nmol/mL | 64 (≈ 55.2 µg/mL) | ≥ 128 µM and ≥ 300 µg/mL | 256 µM |  | CC(C)C[C@@H]1NC(=O)[C@@H](Cc2ccccc2)NC(=O)[C@H](CCN)NC(=O)[C@@H](NC(=O)[C@@H](N)CCN)CCNC(=O)[C@H]([C@@H](C)O)NC(=O)[C@H](CCN)NC(=O)[C@H](CCN)NC1=O [POLYMYXIN B OCTAPEPTIDE] (H-[Dab][Dab][Dab][dF]L[Dab][Dab]T; lactam 2-C) |
| >= 32 nmol/ml | 64 (≈ 71.7 µg/mL) | 16 µM (≈ 17.9 µg/mL) | 32 µM |  | CC(C)C[C@H](NC(=O)O)C(=O)N[C@H](C(=O)N[C@@H](CCN)C(=O)N[C@H]1CCNC(=O)[C@H]([C@@H](C)O)NC(=O)[C@H](CCN)NC(=O)[C@H](CCN)NC(=O)[C@H](CC(C)C)NC(=O)[C@@H](Cc2ccccc2)NC(=O)[C@H](CCN)NC1=O)[C@@H](C)O [DESFA-[LEU1]POLYMYXIN B] |
| 10 nmol/mL | 2 (≈ 2.38 µg/mL) | 2 µM (≈ 2.38 µg/mL) | 2 µM |  | CCCCCCCC(=O)N[C@@H](CCN)C(=O)N[C@H](C(=O)N[C@@H](CCN)C(=O)N[C@H]1CCNC(=O)[C@H]([C@@H](C)O)NC(=O)[C@H](CCN)NC(=O)[C@H](CCN)NC(=O)[C@H](CC(C)C)NC(=O)[C@H](Cc2ccccc2)NC(=O)[C@H](CCN)NC1=O)[C@@H](C)O |
| 9 nmol/mL | 1 (≈ 1.19 µg/mL) | 1 µM (≈ 1.19 µg/mL) | 1 µM |  | CC(C)CCCCC(=O)N[C@@H](CCN)C(=O)N[C@H](C(=O)N[C@@H](CCN)C(=O)N[C@H]1CCNC(=O)[C@H]([C@@H](C)O)NC(=O)[C@H](CCN)NC(=O)[C@H](CCN)NC(=O)[C@H](CC(C)C)NC(=O)[C@@H](Cc2ccccc2)NC(=O)[C@H](CCN)NC1=O)[C@@H](C)O [POLYMYXIN B2] ({Heptanoyl(6-Me)}-[Dab]T[Dab][Dab][Dab][dF]L[Dab][Dab]T; lactam 4-C) |
|  |  |  | > 1000 µg/mL | 0.56 10^7/M | CC(C)C[C@@H]1NC(=O)[C@H](Cc2ccccc2)NC(=O)[C@H](CCCCN)NC(=O)[C@@H](C(N)=O)CSSC[C@@H](C(=O)N[C@@H](CCCCN)C(=O)N[C@H](C(=O)NCC(=O)N[C@@H](CCCCN)C(=O)O)[C@@H](C)O)NC(=O)[C@H](CCCCN)NC(=O)[C@H](CCCCN)NC1=O (KFLKKCKTGK-OH; linker N-6 via X1) |
| >= 32 nmol/ml | 128 (≈ 151 µg/mL) | 64 µM (≈ 75.3 µg/mL) | 128 µM |  | CC(C)C[C@@H]1NC(=O)[C@@H](Cc2ccccc2)NC(=O)[C@H](CCN)NC(=O)[C@@H](NC(=O)[C@H](CCN)NC(=O)[C@@H](NC(=O)[C@H](C)NC(=O)[C@@H](C)NC(=O)[C@H](C)N)[C@@H](C)O)CCNC(=O)[C@H]([C@@H](C)O)NC(=O)[C@H](CCN)NC(=O)[C@H](CCN)NC1=O [DESFA-[ALA-ALA-ALA1]POLYMYXIN B] |
|  |  |  | > 1000 µg/mL | 0.29 10^7/M | CC[C@H](C)[C@H](NOC(=O)[C@H](CCCCN)NC(=O)CNC(=O)[C@@H](NC(=O)[C@H](CCCCN)NC(=O)[C@@H]1CSSC[C@H](C(N)=O)C(=O)N[C@@H](CCCCN)C(=O)N[C@@H](Cc2ccccc2)C(=O)N[C@@H](CC(C)C)C(=O)N[C@@H](CCCCN)C(=O)N[C@@H](CCCCN)C(=O)N1)[C@@H](C)O)C(=O)O (KFLKKCKTGK-X2; linker N-6 via X1) |
| >= 32 nmol/ml | 32 (≈ 34.5 µg/mL) | 32 µM (≈ 34.5 µg/mL) | 64 µM |  | CC(C)C[C@@H]1NC(=O)[C@@H](Cc2ccccc2)NC(=O)[C@H](CCN)NC(=O)[C@@H](NC(=O)[C@H](CCN)NC(=O)[C@@H](NC(=O)[C@H](C)NC(=O)O)[C@@H](C)O)CCNC(=O)[C@H]([C@@H](C)O)NC(=O)[C@H](CCN)NC(=O)[C@H](CCN)NC1=O [DESFA-[ALA1]POLYMYXIN B] |
| 12 nmol/mL | 2 (≈ 2.18 µg/mL) | 2 µM (≈ 2.18 µg/mL) | 2 µM |  | CCCCCCCC(=O)N[C@H](C(=O)N[C@@H](CCN)C(=O)N[C@H]1CCNC(=O)[C@H]([C@@H](C)O)NC(=O)[C@H](CCN)NC(=O)[C@H](CCN)NC(=O)[C@H](CC(C)C)NC(=O)[C@@H](Cc2ccccc2)NC(=O)[C@H](CCN)NC1=O)[C@@H](C)O (stereo in doubt; 231) [Octanoyl Polymixin B nonapeptide] |
| 5 nmol/mL | 2 (≈ 2.53 µg/mL) | 2 µM (≈ 2.53 µg/mL) | 2 µM |  | CCCCCCCC(=O)N[C@@H](CCN)C(=O)N[C@H](C(=O)N[C@@H](CCN)C(=O)N[C@H]1CCNC(=O)[C@H]([C@@H](C)O)NC(=O)[C@H](CCN)NC(=O)[C@H](CCN)NC(=O)[C@H](Cc2c[nH]c3ccccc23)NC(=O)[C@@H](Cc2ccccc2)NC(=O)[C@H](CCN)NC1=O)[C@@H](C)O |
| 10 nmol/mL | 0.5 (≈ 0.588 µg/mL) | 0.5 µM (≈ 0.588 µg/mL) | 0.5 µM |  | CCCCCCC(=O)N[C@@H](CCN)C(=O)N[C@H](C(=O)N[C@@H](CCN)C(=O)N[C@H]1CCNC(=O)[C@H]([C@@H](C)O)NC(=O)[C@H](CCN)NC(=O)[C@H](CCN)NC(=O)[C@H](CC(C)C)NC(=O)[C@@H](Cc2ccccc2)NC(=O)[C@H](CCN)NC1=O)[C@@H](C)O [POLYMYXIN B4] (Heptanoyl-[Dab]T[Dab][Dab][Dab][dF]L[Dab][Dab]T; lactam 4-C) |
| 30 nmol/mL | 128 (≈ 114 µg/mL) | 128 µM (≈ 114 µg/mL) | 128 µM |  | CCCCCCCC(=O)N[C@H]1CCNC(=O)[C@H]([C@@H](C)O)NC(=O)[C@H](CCN)NC(=O)[C@H](CCN)NC(=O)[C@H](CC(C)C)NC(=O)[C@@H](Cc2ccccc2)NC(=O)[C@H](CCN)NC1=O |
| >= 32 nmol/ml | 256 (≈ 291 µg/mL) | ≥ 256 µM | > 256 µM |  | CC(C)C[C@@H]1NC(=O)[C@@H](Cc2ccccc2)NC(=O)[C@H](CCN)NC(=O)[C@@H](NC(=O)[C@H](CCN)NC(=O)[C@@H](NC(=O)[C@H](CCC(=O)O)NC(=O)O)[C@@H](C)O)CCNC(=O)[C@H]([C@@H](C)O)NC(=O)[C@H](CCN)NC(=O)[C@H](CCN)NC1=O [DESFA-[GLU1]POLYMYXIN B] |
